In ChEMBL document CHEMBL5247641, “Discovery of Potent DYRK2 Inhibitors with High Selectivity, Great Solubility, and Excellent Safety Properties for the Treatment of Prostate Cancer” (J Med Chem, 2023) one finds IC50 and Activity data, which are given here for eight compounds.

Assay [1] deals with T1, Dual specificity tyrosine-phosphorylation-regulated kinase 2 (Homo sapiens, UniProt Q92630).
T1 sequence (Q92630 whole entry): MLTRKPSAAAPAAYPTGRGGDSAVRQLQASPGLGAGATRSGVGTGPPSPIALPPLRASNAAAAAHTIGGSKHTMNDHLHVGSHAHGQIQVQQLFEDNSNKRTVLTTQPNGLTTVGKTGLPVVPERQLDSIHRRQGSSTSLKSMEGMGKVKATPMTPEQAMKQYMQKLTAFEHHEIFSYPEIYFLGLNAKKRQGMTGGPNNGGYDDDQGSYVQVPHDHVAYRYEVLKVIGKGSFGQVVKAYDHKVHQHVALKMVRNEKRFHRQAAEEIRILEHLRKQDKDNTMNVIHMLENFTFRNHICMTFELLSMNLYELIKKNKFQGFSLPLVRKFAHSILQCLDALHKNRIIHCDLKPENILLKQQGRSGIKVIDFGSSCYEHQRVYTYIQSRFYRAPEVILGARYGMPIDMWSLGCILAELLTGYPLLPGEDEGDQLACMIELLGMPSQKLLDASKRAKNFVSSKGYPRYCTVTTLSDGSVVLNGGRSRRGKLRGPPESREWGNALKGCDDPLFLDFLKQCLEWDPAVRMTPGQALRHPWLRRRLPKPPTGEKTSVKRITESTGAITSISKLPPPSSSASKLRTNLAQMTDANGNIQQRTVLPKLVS
The assay can be described thus: Inhibition of hexa His-tagged DYRK2 (72 to 479 residues) (unknown origin) expressed in Escherichia coli BL21 (DE3) assessed as substrate phosphorylation using 4E-BP1 as substrate in presence of [gamma33-P]ATP incubated for 2 hrs by scintillation counter analysis.

The test system of assay [2] is DU-145. The assay can be described thus: Antitumor activity against human DU-145 xenografted in BALB/c nude mouse assessed as tumor growth inhibition at 100 mg/kg,po qd for 21 days. The assay is classed as functional, organism-based. The note with it: time 21.0 day. A general note: A xenograft is tissue or cells of one species grown in another, often human tumour cells in immunodeficient mice.

Assay [3] deals with CWR22R. The assay can be described thus: Induction of cell cycle arrest in human 22Rv1 cells assessed as accumulation of cells at S phase at 40 uM incubated for 24 hrs by propidium iodide based flow cytometric analysis (Rvb=20.51 %). Type of assay: functional. For orientation: A flow cytometer gives signals particle by particle.
Assay [4] has as its system DU-145. The assay can be described thus: Induction of cell cycle arrest in human DU-145 cells assessed as accumulation of cells at S phase at 40 uM incubated for 24 hrs by propidium iodide based flow cytometric analysis (Rvb= 29.02%). Type of assay: functional.
Assay [5] has as its system DU-145. The assay is described as follows: Induction of cell cycle arrest in human DU-145 cells assessed as accumulation of cells at G2 phase at 40 uM incubated for 24 hrs by propidium iodide based flow cytometric analysis (Rvb= 17.52%). Type of assay: functional.
Assay [6] relates to CWR22R. The assay is described as follows: Induction of cell cycle arrest in human 22Rv1 cells assessed as accumulation of cells at G1 phase at 40 uM incubated for 24 hrs by propidium iodide based flow cytometric analysis (Rvb= 55.28%). The assay is classed as functional.
The subject of assay [7] is DU-145. The assay is described as follows: Induction of cell cycle arrest in human DU-145 cells assessed as accumulation of cells at G1 phase at 40 uM incubated for 24 hrs by propidium iodide based flow cytometric analysis (Rvb= 53.46%). Type of assay: functional.
Assay [8] has as its system DU-145. The assay is described as follows: Induction of apoptosis in human DU-145 cells assessed as apoptotis rate at 40 uM incubated for 24 hrs by Annexin V-FITC and PI staining based flow cytometry (Rvb= 4.36%). The assay is classed as functional.
Assay [9] has as its system CWR22R. The assay can be described thus: Induction of cell cycle arrest in human 22Rv1 cells assessed as accumulation of cells at G2 phase at 40 uM incubated for 24 hrs by propidium iodide based flow cytometric analysis (Rvb=24.21 %). Type of assay: functional.
For assay [10], the system named is CWR22R. The assay can be described thus: Induction of apoptosis in human 22Rv1 cells assessed as apoptotis rate at 40 uM incubated for 24 hrs by Annexin V-FITC and PI staining based flow cytometry (Rvb= 3.08%). Type of assay: functional.
The target in assay [11] is T1, Dual specificity tyrosine-phosphorylation-regulated kinase 2. The assay can be described thus: Inhibition of human GST-tagged DYRK2 expressed in Escherichia coli BL21 (DE3) using woodtide as substrate in presence of [gamma33-P]ATP incubated for 30 mins by Scintillation counter analysis.

Molecules are shown by their SMILES. Activity calls are given as the source filed them. The calls are words filed in the database; no cut-off is given here. Where only a bound is given, the exact number is not on record here.

The IC50 is the point on the concentration scale where inhibition reaches its midpoint.

Consider `O=C(c1ccc(Nc2ncc(F)c(-c3ccc4scnc4c3)n2)nc1)N1CCN(C(=O)C2CC2)CC1`, for which the half-maximal inhibitory concentration (IC50) in [1] is 33 nM.

For the compound `CC(C)(C)OC(=O)N1CCN(Cc2ccc(Nc3ncc(F)c(-c4ccc5scnc5c4)n3)nc2)CC1`, in assay [1], the 50% inhibitory concentration (IC50) was more than 10000 nM.

With `Cc1cnc(Nc2ccc(CN3CCN(C(=O)OC(C)(C)C)CC3)cn2)nc1-c1ccc2scnc2c1`, in assay [1], the 50% inhibitory concentration (IC50) is more than 10000 nM.

Take `CC(C)(C)OC(=O)N1CCN(C(=O)c2ccc(Nc3ncc(F)c(-c4ccc5scnc5c4)n3)cn2)CC1`: the half-inhibitory concentration (IC50) in [1] was determined as 16 nM.

Consider `CC(C)(C)OC(=O)N1CCN(Cc2ccc(Nc3nccc(-c4ccc5scnc5c4)n3)nc2)CC1`, for which the IC50 in assay [1] was more than 10000 nM.

As for `CNC(=O)c1ccc(N2C(=S)N(c3ccc(C#N)c(C(F)(F)F)c3)C(=O)C2(C)C)cc1F` [ENZALUTAMIDE], in the assay with DU-145 [2], the outcome was Active. Further, the Activity came to 15.68% in the assay with CWR22R [3]; 26.54% in the assay with DU-145 [4]; 16.78% in the assay on DU-145 [5]; 62.89% in the assay on CWR22R [6]; 56.68% in the assay on DU-145 [7]; 8.01% in the assay with DU-145 [8]. Moreover, the Activity is 21.43% in the assay with CWR22R [9] and 5.85% with CWR22R [10].

Consider `COc1cc(/C=C/C(=O)CC(=O)/C=C/c2ccc(O)c(OC)c2)ccc1O` [CURCUMIN], for which, in assay [11], the IC50 is 2.5 nM.

Consider `COc1cnc(Nc2ccc(CN3CCN(C(=O)OC(C)(C)C)CC3)cn2)nc1-c1ccc2scnc2c1`, for which the 50% inhibitory concentration (IC50) in [1] was more than 10000 nM.
